# PubChem BioAssay AID2743 (NMMLSC, 2010)
# Active and inactive are the calls of the source.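 Rule for the calls: active = fitted half-maximal concentration for change in GFP expression of 33 µM or less; inactive = the rest.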
# Assay: potency of AGP1-GFP expression modulators in yeast, dose response, cell-based, flow cytometry, S. cerevisiae, MLPCN hits (AID 2743)
# Conditions: S. cerevisiae AGP1-GFP strain, flow cytometry GFP, 3 h; at 33 µM (top of the series)
row,Compound,GFP fluorescence (kMESF)
1,O=C(Oc1oc(-c2ccco2)nc1C=Nc1ccccc1)c1ccco1,43.5 kMESF (inactive)
2,COc1cccc(/C=N/Nc2ncc(C(F)(F)F)cc2Cl)c1O,34.3 kMESF (inactive)
3,Cc1cc(C)c(S(=O)(=O)N2CCC(C(=O)NCc3ccc(Cl)cc3Cl)CC2)c(C)c1,37.4 kMESF (inactive)
4,CCn1c(=O)c(C(=O)Nc2nc3ccccc3[nH]2)c(O)c2ccccc21,12.8 kMESF (inactive)
5,O=[N+]([O-])c1cc(Cl)c2cccnc2c1O,22.6 kMESF (inactive)
6,O=C(c1ccccc1)c1ccccc1N1C(=O)C=CC1=O,38 kMESF (inactive)
7,Cc1nn2c(NCc3ccccn3)c3c(nc2c1-c1ccccc1)CCC3,40.6 kMESF (inactive)
8,Cc1ccc2nc(Cl)c3nnnn3c2c1,33.8 kMESF (inactive)
9,C[n+]1ccc(/C=C/c2c[nH]c3ccccc23)cc1,44 kMESF (inactive)
10,CCOc1ccc(N2C(=O)C(Cl)=C(Nc3ccccc3O)C2=O)cc1,43.1 kMESF (inactive)
11,CN(C)c1ccc(N=Cc2nc(-c3ccccc3)oc2OC(=O)c2ccccc2)cc1,43 kMESF (inactive)
12,CCOC(=O)C(C(=O)OCC)C(C(=O)OCC)N1CCOCC1 (stereo unspecified),41 kMESF (inactive)
13,CCSc1nnc(NC(=O)c2ccccn2)s1,39.6 kMESF (inactive)
14,CC(C)(C)c1ccc(NC(=O)COC(=O)c2ccc([N+](=O)[O-])s2)cc1,14.7 kMESF (inactive)
15,Oc1c(CN2CCCCC2)cc(Br)c2cccnc12,46.9 kMESF (inactive)
16,Cc1cc(=O)oc2cc(Oc3ccc([N+](=O)[O-])cc3C(F)(F)F)ccc12,42.1 kMESF (inactive)
17,O=S(=O)(/N=C(\Sc1ccc(Cl)cc1)c1ccccc1)c1ccccc1,36.1 kMESF (inactive)
18,Cc1cccc2c1NC(=O)/C2=C\C(=O)c1cccs1,43.9 kMESF (inactive)
19,Cc1ccc(/C=C2\C(=O)NC(=S)N(c3ccccc3F)C2=O)s1,26.9 kMESF (inactive)
20,Cc1cc(=O)n2c3c(sc2n1)C(=O)N(Cc1ccccc1)C3=O,44.3 kMESF (inactive)
21,Cc1cc(O)c(C(=O)/C=C/c2ccc(Cl)cc2)c(=O)o1,40.1 kMESF (inactive)
22,O=c1oc2ccccc2c(O)c1[C@H]1c2ccc(O)cc2Oc2c1c(=O)oc1ccccc21,36.3 kMESF (inactive)
23,O=C(O)c1cc[c]([Hg][Cl])cc1,32.1 kMESF (inactive)

row,Compound,GFP fluorescence (kMESF)
1,Oc1c(I)cc(I)c2cccnc12,24.6 kMESF (inactive)
2,Cc1nn2c(-c3ccncc3)nnc2c2ccccc12,22.9 kMESF (inactive)
3,[O-][n+]1cccc2c(Br)cc(Br)c(O)c21,50.1 kMESF (inactive)
4,O=C1C=CC(=O)N1c1ccc(O)cc1,48.3 kMESF (inactive)
5,N#C/C(=C\c1cc(Br)ccc1F)C(=O)NC1CC1,30.6 kMESF (inactive)
6,CSc1nnc2c3cc(F)ccc3n(C)c2n1,25.3 kMESF (inactive)
7,Cc1cccc(N=C2NC(=O)/C(=C/C=C/c3ccco3)S2)c1C,23.3 kMESF (inactive)
8,C/C(=N\Nc1ncnc2sc(C)c(C)c12)c1ccccn1,26.5 kMESF (inactive)
9,Cc1c(C)c2ccc(Oc3ccc([N+](=O)[O-])cc3C(F)(F)F)c(C)c2oc1=O,33.9 kMESF (inactive)
10,O=C(NNC(=S)NC(=O)c1ccco1)c1ccc(F)cc1,43.7 kMESF (inactive)
11,CC[C@H](C)/C=C(C)/C=C/C1=CC2=C(Cl)C(=O)[C@@](C)(OC(C)=O)C(=O)C2=CO1,1.57 kMESF (inactive)
12,C#CCOCCOCCOCCNc1nc(N2CCN(C(=O)CCCCCCCCCCNC(=O)[C@H](CCCCN)n3cc(CCCC(=O)O)nn3)CC2)nc(N2CCN(C(=O)CCCCCCCCCCNC(=O)[C@H](CCCN=C(N)N)n3cc(C[C@@H](C)CC)nn3)CC2)n1,42.4 kMESF (inactive)
13,COc1ccc(C2=CC3=C(Br)C(=O)C(C)(O)C(=O)C3=CO2)cc1 (stereo unspecified),2.12 kMESF (inactive)
14,O=C1NC(=O)N(Cc2ccco2)C(=O)/C1=C/c1ccc(-c2cccc([N+](=O)[O-])c2)o1,34.8 kMESF (inactive)
15,COc1ccc([N+](=O)[O-])c(S(=O)(=O)c2ccccc2)n1,47.5 kMESF (inactive)
16,COCCN1C(=O)/C(=C/c2ccc(N3CCCC3)cc2C)SC1=S,44.5 kMESF (inactive)
17,Nc1ccccc1SC(C[N+](=O)[O-])c1ccccc1 (stereo unspecified),39.9 kMESF (inactive)
18,N/C(Cc1ccc(Cl)cc1)=N\OC(=O)c1ccccc1,23.8 kMESF (inactive)
19,NC(=O)COc1ccc(C(=O)/C=C2/C(=O)Nc3ccccc32)cc1,46.2 kMESF (inactive)
20,CCCCCn1c(=O)c(C(=O)Nc2nc3ccccc3[nH]2)c(O)c2ccccc21,36.9 kMESF (inactive)
21,O=S(=O)(c1ccccc1)c1ccc(C(F)(F)F)cn1,43.8 kMESF (inactive)
22,Cc1ccccc1N1C(=O)C(Cl)=C(N2CCN(c3ccccc3)CC2)C1=O,41.1 kMESF (inactive)
23,COc1ccc(/C=C/C(=O)C2C(=O)C=C(C)OC2=O)cc1O (stereo unspecified),43 kMESF (inactive)

row,Compound,GFP fluorescence (kMESF)
1,O=C(Cc1ccc(Cl)cc1)NNC(=S)NC(=O)c1cccs1,36.9 kMESF (inactive)
2,CCCCCCCCC/C(=N\O)c1ccccn1,34.8 kMESF (inactive)
3,CCOc1ccc(C(C)=O)cc1N1C(=O)C2C3C=CC(O3)C2C1=O (stereo unspecified),40.5 kMESF (inactive)
4,CCC(=O)Oc1oc(-c2ccccc2)nc1C=Nc1ccccc1OC,42.9 kMESF (inactive)
5,Oc1c(C(Nc2nc3ccccc3s2)c2ccco2)ccc2cccnc12 (stereo unspecified),39.7 kMESF (inactive)
6,COc1ccc(C2(C)ON(c3ccccc3C(F)(F)F)C2=O)cc1 (stereo unspecified),36.5 kMESF (inactive)
7,O=C(Nc1cccc(-c2csc(Nc3ccccc3)n2)c1)c1ccccc1,31 kMESF (inactive)
8,O=C(c1ccc(Cl)c([N+](=O)[O-])c1)N1CCN(c2ccccc2)CC1,62.6 kMESF (inactive)
9,Cc1ccc(NC(=O)c2cc(N3C(=O)C=CC3=O)ccc2Cl)cc1C,23.9 kMESF (inactive)
10,Cc1ccc2nc(/C(C#N)=C/c3ccc(O)c(O)c3)[nH]c2c1,41.6 kMESF (inactive)
11,C=CCN1C(=O)/C(=C/c2cccs2)C(=O)NC1=S,20.4 kMESF (inactive)
12,CCN(CC)c1ccc(/C=C2\C(=O)c3ccc(C(=O)O)cc3C2=O)cc1,747 kMESF (inactive)
13,CCN(CC(=O)NC(C)(C)C)C(=O)COc1c(Cl)cc(Cl)c2ccc(C)nc12,35.5 kMESF (inactive)
14,COc1cc(CNC(=O)CCCCCCC(C)C)ccc1O,46.8 kMESF (inactive)
15,O=C1c2sc3nc4ccccc4n3c2C(=O)N1c1ccccc1Cl,23.1 kMESF (inactive)
16,COc1ccccc1N=Cc1nc(-c2ccccc2)oc1OC(C)=O,35.1 kMESF (inactive)
17,O=C(/C=C/c1ccccc1)c1cc(Br)ccc(=O)c1O,-1.01 kMESF (inactive)
18,O=C(O)/C=C/C(=O)c1ccc2c(c1)CCc1ccccc1-2,18.9 kMESF (inactive)
19,COc1ccccc1N=Nc1ccc(O)c2ncccc12,49.5 kMESF (inactive)
20,O=C1C=CC(=O)N1c1ccc(N2CCCCC2)cc1,46.9 kMESF (inactive)
21,O=C(OCC(=O)N1CCN(C(=O)c2ccco2)CC1)c1cc(-c2ccc(Cl)c(Cl)c2Cl)nc2ccccc12,50.9 kMESF (inactive)
22,Cc1ccc(C(=O)/C=C/C(=O)c2ccc(C)cc2)cc1,43.8 kMESF (inactive)
23,CC1=NOC(=O)/C1=C\c1ccc(-c2cc(Cl)ccc2Cl)o1,42.3 kMESF (inactive)

row,Compound,GFP fluorescence (kMESF)
1,Cc1ccc(S(=O)(=O)Cc2cc(F)c([N+](=O)[O-])cc2[N+](=O)[O-])cc1,37 kMESF (inactive)
2,CCOC(=O)COc1ccc2ccccc2c1/C=C/[N+](=O)[O-],29.3 kMESF (inactive)
3,COc1ccc(-c2cc3nc4n(c(=O)c3s2)CCC4)cc1,23.3 kMESF (inactive)
4,Cc1cc(NC(c2ccc(Cl)cc2)c2ccc3cccnc3c2O)no1 (stereo unspecified),34 kMESF (inactive)
5,C=CCN1C(=O)/C(=C/c2ccc(-c3ccc(F)cc3)o2)SC1=S,35.3 kMESF (inactive)
6,COc1ccc2c(c1)c(/C=C/c1cc[n+](C)cc1)cn2C,46.7 kMESF (inactive)
7,Cc1cccc(C(=O)NNC(=S)NC(=O)c2ccccc2)c1,44.8 kMESF (inactive)
8,CC(=O)Oc1ccc(N2C(=O)C3C4C=CC(O4)C3C2=O)cc1 (stereo unspecified),45.2 kMESF (inactive)
9,Oc1cc(-c2ccc(N3CCCCC3)nc2)cc2cccnc12,31.5 kMESF (inactive)
10,O=C(Nc1nc(-c2ccccn2)cs1)C1COc2ccccc2O1 (stereo unspecified),26.3 kMESF (inactive)
11,COc1cc(C=C2C(=O)c3ccccc3C2=O)cc(OC)c1OC,38.9 kMESF (inactive)
12,CC1=C(C)/C(=N\OS(=O)(=O)c2ccccc2)C=CC1=O,41.6 kMESF (inactive)
13,CC1(C)C[C@H]2C=C(C=O)[C@]3(C=O)C[C@]3(C)[C@H]2C1,36.7 kMESF (inactive)
14,O=C1/C(=C\c2ccc(O)c(O)c2)SC(=S)N1Cc1ccccc1,10.8 kMESF (inactive)
15,O=C(Oc1cccc2cccnc12)c1ccc(Br)o1,38.2 kMESF (inactive)
16,O=C1N(c2ccccc2C(F)(F)F)O[C@@]1(c1ccccc1)C1CCCC1,38.4 kMESF (inactive)
17,CCOC(=O)c1cc(-c2ccc(/C=C3/C(=O)NC(=O)C(C#N)=C3C)o2)ccc1Cl,28.2 kMESF (inactive)
18,Cc1ccc(/C=C2\C(=O)NC(=S)N(c3ccc(F)cc3)C2=O)s1,31.9 kMESF (inactive)
19,N/C(Cc1ccc(Cl)cc1Cl)=N\OC(=O)c1cccs1,27.9 kMESF (inactive)
20,N#C/C(=C\c1ccccn1)c1nc2ccccc2s1,41.8 kMESF (inactive)
21,COc1ccc(C(=O)NC(=S)NNC(=O)c2cnccn2)cc1,42.8 kMESF (inactive)
22,Oc1ccc2ccccc2c1N=Nc1nccs1,43.4 kMESF (inactive)
